These results are taken from ChEMBL document CHEMBL5634148, “Synthesis and evaluation of novel pleuromutilin derivatives targeting the 50S ribosomal subunit for antibacterial ability” (Eur J Med Chem, 2023).

≈ marks a conversion by molar mass, not a printed value.

Holding throughout (format): functional
Holding throughout (conditions): time 18-24 hrs

Assay [1] deals with Escherichia coli. The experiment in a line: Antibacterial activity against Escherichia coli CICC 10389 assessed as bacterial growth inhibition incubated for 18 to 24 hrs by NCCLS based assay.
Assay [2] concerns Pasteurella multocida. Briefly: Antibacterial activity against Pasteurella multocida CVCC 1659 assessed as bacterial growth inhibition incubated for 18 to 24 hrs by NCCLS based assay.
Assay [3] has as its system Staphylococcus aureus. Briefly: Antibacterial activity against Staphylococcus aureus ATCC 25923 assessed as bacterial growth inhibition incubated for 18 to 24 hrs by NCCLS based assay.
Assay [4] relates to Enterococcus faecalis. The experiment in a line: Antibacterial activity against Enterococcus faecalis assessed as bacterial growth inhibition incubated for 18 to 24 hrs by NCCLS based assay.
Assay [5] has as its system Staphylococcus aureus. The experiment in a line: Antibacterial activity against methicillin-resistant Staphylococcus aureus BNCC 337371 assessed as bacterial growth inhibition incubated for 18 to 24 hrs by NCCLS based assay.
Assay [6] concerns Staphylococcus epidermidis. The experiment in a line: Antibacterial activity against methicillin-resistant Staphylococcus epidermidis ATCC 51625 assessed as bacterial growth inhibition incubated for 18 to 24 hrs by NCCLS based assay.
Assay [7] deals with Streptococcus agalactiae. Briefly: Antibacterial activity against Streptococcus agalactiae assessed as bacterial growth inhibition incubated for 18 to 24 hrs by NCCLS based assay.

Consider `C=C[C@]1(C)C[C@@H](OC(=O)CSc2ncnc(NCCN3CCCC3)n2)[C@]2(C)[C@H](C)CC[C@]3(CCC(=O)[C@H]32)[C@@H](C)[C@@H]1O`, for which the MIC (in general, the smallest concentration in the dilution series that meets the test's criterion for growth inhibition) in assay [1] is ≥ 64 µg/mL; in assay [2] it was ≥ 64 µg/mL; in assay [3], 0.063 µg/mL (≈ 0.108 µM); in assay [4], 32 µg/mL (≈ 54.6 µM); in assay [5], 0.125 µg/mL (≈ 0.213 µM); in assay [6] it was 0.125 µg/mL (≈ 0.213 µM). Also, the MIC in assay [7] was 0.125 µg/mL (≈ 0.213 µM).

As for `C=C[C@]1(C)C[C@@H](OC(=O)CSc2ncnc(NCCNCC)n2)[C@]2(C)[C@H](C)CC[C@]3(CCC(=O)[C@H]32)[C@@H](C)[C@@H]1O`, the minimum inhibitory concentration (MIC) in assay [1] was ≥ 64 µg/mL; in assay [2], ≥ 64 µg/mL; in assay [3], 0.063 µg/mL (≈ 0.113 µM); in assay [4] it was 32 µg/mL (≈ 57.2 µM); in assay [5] it was 0.125 µg/mL (≈ 0.223 µM); in assay [6], 0.25 µg/mL (≈ 0.447 µM). The MIC in assay [7] came to 0.25 µg/mL (≈ 0.447 µM).

As for `C=C[C@]1(C)C[C@@H](OC(=O)CSc2ncnc(N3CCNCC3)n2)[C@]2(C)[C@H](C)CC[C@]3(CCC(=O)[C@H]32)[C@@H](C)[C@@H]1O`, the MIC in assay [1] was ≥ 64 µg/mL; in assay [2], ≥ 64 µg/mL; in assay [3], 1 µg/mL (≈ 1.79 µM); in assay [4], ≥ 64 µg/mL; in assay [5] it was 2 µg/mL (≈ 3.59 µM); in assay [6], 2 µg/mL (≈ 3.59 µM). Moreover, in assay [7], the MIC is 0.25 µg/mL (≈ 0.448 µM).

For `C=C[C@]1(C)C[C@@H](OC(=O)CSc2ncnc(NC)n2)[C@]2(C)[C@H](C)CC[C@]3(CCC(=O)[C@H]32)[C@@H](C)[C@@H]1O`, the MIC was ≥ 64 µg/mL in assay [1]; ≥ 64 µg/mL in assay [2]; 0.125 µg/mL (≈ 0.249 µM) in assay [3]; 32 µg/mL (≈ 63.7 µM) in assay [4]; 0.25 µg/mL (≈ 0.497 µM) in assay [5]; 0.5 µg/mL (≈ 0.995 µM) in assay [6]. Moreover, the MIC in assay [7] amounted to 0.125 µg/mL (≈ 0.249 µM).

For the compound `C=C[C@]1(C)C[C@@H](OC(=O)CSc2ncnc(OC3CCCC3)n2)[C@]2(C)[C@H](C)CC[C@]3(CCC(=O)[C@H]32)[C@@H](C)[C@@H]1O`, the minimal inhibitory concentration (MIC) was ≥ 64 µg/mL in assay [1]; ≥ 64 µg/mL in assay [2]; 4 µg/mL (≈ 7.17 µM) in assay [3]; ≥ 64 µg/mL in assay [4]; 16 µg/mL (≈ 28.7 µM) in assay [5]; 16 µg/mL (≈ 28.7 µM) in assay [6]. Besides, in assay [7], the MIC stood at 8 µg/mL (≈ 14.3 µM).

For the compound `C=C[C@]1(C)C[C@@H](OC(=O)CSc2ncnc(NCCN)n2)[C@]2(C)[C@H](C)CC[C@]3(CCC(=O)[C@H]32)[C@@H](C)[C@@H]1O`, the MIC in assay [1] is ≥ 64 µg/mL; in assay [2], ≥ 64 µg/mL; in assay [3], 2 µg/mL (≈ 3.76 µM); in assay [4] it was ≥ 64 µg/mL; in assay [5], 8 µg/mL (≈ 15 µM); in assay [6], 8 µg/mL (≈ 15 µM). Also, in assay [7], the MIC turned out to be 2 µg/mL (≈ 3.76 µM).

For `C=C[C@]1(C)C[C@@H](OC(=O)CSc2ncnc(NCCN3CCOCC3)n2)[C@]2(C)[C@H](C)CC[C@]3(CCC(=O)[C@H]32)[C@@H](C)[C@@H]1O`, the MIC was ≥ 64 µg/mL in assay [1]; ≥ 64 µg/mL in assay [2]; 0.063 µg/mL (≈ 0.105 µM) in assay [3]; 32 µg/mL (≈ 53.2 µM) in assay [4]; 0.125 µg/mL (≈ 0.208 µM) in assay [5]; 0.25 µg/mL (≈ 0.415 µM) in assay [6]. Also, the MIC in assay [7] is 0.125 µg/mL (≈ 0.208 µM).

With `C=C[C@]1(C)C[C@@H](OC(=O)CSc2ncnc(N)n2)[C@]2(C)[C@H](C)CC[C@]3(CCC(=O)[C@H]32)[C@@H](C)[C@@H]1O`, the MIC in assay [1] is ≥ 64 µg/mL; in assay [2] it was ≥ 64 µg/mL; in assay [3], 0.125 µg/mL (≈ 0.256 µM); in assay [4], 16 µg/mL (≈ 32.7 µM); in assay [5] it was 0.125 µg/mL (≈ 0.256 µM); in assay [6] it was 0.25 µg/mL (≈ 0.512 µM). In addition, the MIC in assay [7] turned out to be 0.125 µg/mL (≈ 0.256 µM).

For the compound `C=C[C@]1(C)C[C@@H](OC(=O)CSc2ncnc(N(CC)CC)n2)[C@]2(C)[C@H](C)CC[C@]3(CCC(=O)[C@H]32)[C@@H](C)[C@@H]1O`, the MIC is ≥ 64 µg/mL in assay [1]; ≥ 64 µg/mL in assay [2]; 0.125 µg/mL (≈ 0.229 µM) in assay [3]; ≥ 64 µg/mL in assay [4]; 0.25 µg/mL (≈ 0.459 µM) in assay [5]; 0.125 µg/mL (≈ 0.229 µM) in assay [6]. The MIC in assay [7] worked out at 0.25 µg/mL (≈ 0.459 µM).

Take `C=C[C@]1(C)C[C@@H](OC(=O)CSc2ncnc(OCC)n2)[C@]2(C)[C@H](C)CC[C@]3(CCC(=O)[C@H]32)[C@@H](C)[C@@H]1O`: the MIC in assay [1] was ≥ 64 µg/mL; in assay [2], ≥ 64 µg/mL; in assay [3], 0.125 µg/mL (≈ 0.241 µM); in assay [4], 32 µg/mL (≈ 61.8 µM); in assay [5] it was 0.125 µg/mL (≈ 0.241 µM); in assay [6], 0.25 µg/mL (≈ 0.483 µM). Moreover, in assay [7], the MIC came out at 0.25 µg/mL (≈ 0.483 µM).

As to `C=C[C@]1(C)C[C@@H](OC(=O)CSc2ncnc(OCCC)n2)[C@]2(C)[C@H](C)CC[C@]3(CCC(=O)[C@H]32)[C@@H](C)[C@@H]1O`, the MIC in assay [1] was ≥ 64 µg/mL; in assay [2] it was ≥ 64 µg/mL; in assay [3], 16 µg/mL (≈ 30.1 µM); in assay [4], ≥ 64 µg/mL; in assay [5], 16 µg/mL (≈ 30.1 µM); in assay [6], 16 µg/mL (≈ 30.1 µM). Besides, the MIC in assay [7] worked out at 8 µg/mL (≈ 15 µM).
